This note sets out measurements from patent US20110288011A1, “PEPTIDE THERAPEUTIC CONJUGATES AND USES THEREOF” (priority 2008, published 2011).

“Also recorded” adds a separate entry of the source. Square brackets hold non-standard residues; d marks the D form. Ends that are not written are not given here. Peptide text beside a SMILES is read from it. pGlu = O=C1CC[C@@H](C(=O)O)N1

Series [1] deals with NTSR1 (Homo sapiens, UniProt P30989). Description: biochemical.
In series [2] the test system is mouse brain. The conditions noted are these: in vivo.
Experimental: To measure brain uptake of the exendin-4/Angiopep-2 conjugates, we used an in situ perfusion assay. […] Briefly, the right common carotid artery of mice anesthetized with ketamine/xylazine (140/8 mg/kg i.p.) was exposed and ligated at the level of the bifurcation of the common carotid, rostral to the occipital artery. The common carotid was then catheterized rostrally with polyethylene tubing filled with heparin (25 U/ml) and mounted on a 26-gauge needle. […] Prior to the perfusion, the contralateral blood flow contribution was eliminated by severing the heart ventricles. […] Mice were then decapitated to terminate perfusion and the right hemisphere was isolated on ice before being subjected to capillary depletion. Aliquots of homogenates, supernatants, pellets, and perfusates were taken to measure their contents and to evaluate the apparent volume of distribution.
The test system of series [3] is DIO mice. Description: Glycemia in DIO mice after bolus injection. Format: in vivo, mouse. The conditions noted are these: vs control. The method, then: We also tested the ability of the exendin-4-Angiopep-2 dimer conjugate to reduce glycemia in DIO mice. Mice were injected with a bolus containing a control, exendin-4, or the exendin-4-Angiopep-2 dimer conjugate.

Series [4] relates to ob/ob mice. The experiment in a line: Treatment of obese (ob/ob) mice with Exen-An2: body weight, food intake, glycemia. Format: in vivo, mouse. Conditions: higher doses (exendin-4 30 μg/kg, Exen-An2 48 μg/kg), vs control. The method, then:
The body weight of each mouse was measured daily. Food intake was estimated based on the mean values for each group, and glycemia was measured one hour following treatment.

Series [5] concerns blood-brain barrier. Conditions: mouse, in vivo.
Series [6] concerns mice. Description: Body temperature (hypothermia induction) in mice. Format: in vivo. Conditions: for Δ Max temp: mouse, in vivo.
Experimental: We also tested whether higher doses of the conjugate would results in greater induction of hypothermia.
At this time, the infusion was increased to 40 mg/kg/hr.
Series [7] concerns mice. Description: Hot plate test (analgesia) in mice. Conditions: 15 minutes following injection, NT-An2 20 mg/kg, buprenorphine 1 mg/kg.
Series [8] concerns rats. The experiment in a line: Body temperature (sustained hypothermia) in rats. Format: in vivo. The method, then:
A similar experiment was performed in rats.
A similar experiment was conducted in rats.
A further experiment, conducted over a 12-hour period, was also performed in rats.

Series [9] deals with mice brains. Description: In situ brain perfusion of iodinated NT and NT-An2. Format: in vivo. An excerpt: Following iodination, mice brains were perfused in the carotid artery with either [^125I]-NT or the [^125I]-NT-An2 derivative in Krebs buffer for the indicated times. After the indicated times, brains were further perfused for 30 sec to washout the excess of both compound. Both [^125I]-NT or [^125I]-NT-An2 derivative in brain were quantified using a […]. Results are expressed in terms of brain volume of distribution (ml/100 g) as a function of time.
Brain capillary depletion was performed using Dextran following standard procedures. Both [^125I]-NT or [^125I]-NT-An2 derivative present in brain, capillaries, and parenchyma were quantified and volume of distribution (ml/100 g/2 min) is reported.
To confirm that the NT-An2 conjugate crosses the BBB, both NT and the conjugate were iodinated using standard procedures, and in situ brain perfusion was performed using methods standard in the art. The initial transport was measured as a function of time (FIG. 42). […] Higher levels of NT-An2 were found in the brain parenchyma when compared to NT.

Sequence of NTSR1 (P30989 whole entry): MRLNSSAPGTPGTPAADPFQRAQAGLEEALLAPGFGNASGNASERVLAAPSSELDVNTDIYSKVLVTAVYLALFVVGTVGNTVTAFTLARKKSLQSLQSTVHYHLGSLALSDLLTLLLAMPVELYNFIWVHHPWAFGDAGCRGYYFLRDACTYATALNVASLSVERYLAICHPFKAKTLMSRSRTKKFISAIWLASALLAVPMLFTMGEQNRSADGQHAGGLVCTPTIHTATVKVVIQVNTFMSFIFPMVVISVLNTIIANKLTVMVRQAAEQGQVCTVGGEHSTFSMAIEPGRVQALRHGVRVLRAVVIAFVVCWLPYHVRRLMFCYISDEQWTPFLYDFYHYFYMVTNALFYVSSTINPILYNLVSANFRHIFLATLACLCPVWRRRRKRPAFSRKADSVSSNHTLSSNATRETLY

Regarding `CC[C@H](C)[C@H](NC(=O)[C@@H](Cc1ccc(O)cc1)NC(=O)[C@@H]1CCCN1C(=O)[C@H](CCCNC(=N)N)NC(=O)[C@H](CCCNC(=N)N)NC(=O)[C@H](CCCCN)NC(C)=O)C(=O)N[C@@H](CC(C)C)C(=O)O` [AcLysNT(8-13)D-tyr11, Ac-KRRPD-YIL-OH] (Ac-KRRP[dY]IL-OH), the midpoint of inhibition in series [1], the IC50, lay at 5390 nM.
In the case of exendin-4, the brain distribution in series [2] is 0.2 ml/100 g/2 min. Moreover, the glycemia result in series [3] is listed as “reduced glycemia”. For the same molecule, in series [4] (after 10 days of daily treatment), the body weight gain entry is on record as “lower than the control; also recorded: reduce weight gain”. Also, the food intake result in series [4] was “reduced; also recorded: reduce food intake”.
Take “leptin(116-130) (SCHLPWASGLETLDS-NH2; UniProt P41159 116-130, looked up, fragment) [leptin116-130]”: in series [5], the “transport across the BBB” value was “reduced as compared to in lean mice”.
On to `CC[C@H](C)[C@H](NC(=O)[C@H](Cc1ccc(O)cc1)NC(=O)[C@@H]1CCCN1C(=O)[C@H](CCCNC(=N)N)NC(=O)[C@H](CCCNC(=N)N)NC(=O)[C@H](CCCCN)NC(=O)[C@@H]1CCC(=O)N1)C(=O)N[C@@H](CC(C)C)C(=O)O` [pGlu-Lys-NT(8-13)] ([pGlu]KRRPYIL-OH; C-terminus assumed), for which half-maximal inhibition in series [1] (IC50) required 1.3 nM.
For “NT-An2: Neurotensin Angiopep-2-Cys amide conjugate via EMCS/MHA linker; different production batches”, the “reduction in body temperature” value in series [6] (mice, 5, 15, or 20 mg/kg, monitored for 120 minutes) is “Small differences between these higher doses”. The body temperature entry in series [6] (mice, i.v. bolus 20 mg/kg then 20 mg/kg/hr for 2.5 hours, then 40 mg/kg/hr, 360 minute time course) is on record as “reduction in body temperature”; in series [6] (mice, intravenous, NT 1 mg/kg or equivalent dose of conjugate (2.5 mg/kg)), “rapid decrease in the body temperature”; in [6] (mice, intravenous, NT-An2 5 mg/kg) it was “stronger decrease in body temperature”; in [8] (40 mg/kg i.v. bolus followed by infusion, 12-hour period, 40 mg/kg), “sustained reduction in body temperature; also recorded: prolonged reduction of body temperature”; in [8] (i.v. 20 mg/kg then 20 mg/kg/hr infusion, 360-minute time course), “sustained reduction in body temperature”. Besides, the “effect on body temperature” value in [6] (mice, i.v. bolus, monitored 120 minutes, conjugates compared with control) is given as “greatest reduction in body temperature; also recorded: larger effect”. The “Δ Max temp” value was −4 to −5 °C in series [6] (listed as ANG-NT (prep #1)), −4 to −5 °C in [6] (listed as ANG-NT (prep #2)), −3 to −4 °C in [6] (listed as ANG-NT (prep #3)) and −2 to −4 °C in series [6] (listed as ANG-NT (prep #4)). Further, the “latency of foot licking behavior (hot plate)” value in series [7] was “increased the latency of foot licking behavior in a statistically significant manner”. Moreover, in series [8] (i.v. bolus 20 mg/kg then 20 mg/kg/hr for […], after 90 minutes), the maximal temperature drop entry was “about 3.5 °C”. Further, the “trapping in the brain capillaries” value in series [9] (2 min in situ perfusion, capillary depletion) is recorded as “not trapped in the brain capillaries”. Also, in series [9] (2 min in situ perfusion, capillary depletion, compared to NT), the “levels in the brain parenchyma” value is “Higher levels”. In addition, the initial brain uptake result in series [9] (in situ brain perfusion, as a function of time, iodinated compounds) is listed as “higher than for the unconjugated NT”.
